In ChEMBL document CHEMBL1201862, “PubChem BioAssay data set” (2004):
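Grown in 96-well plates, cells were treated for 48 hours with each compound at five concentrations. Insufficient inhibition: endpoint recorded as highest concentration tested. GI50 = concentration required for 50% inhibition of growth.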 Activity calls are given as the source filed them. Rule as the data show it: active = GI50 up to about 1.1 µM and inactive = higher.

What was measured:
Experiment in all cases: growth of human tumour cells (NCI), 48 h
[1] = tested on: 786-0
[2] = tested on: A498
[3] = tested on: A549
[4] = tested on: ACHN
[5] = tested on: CAKI-1
[6] = tested on: CCRF-CEM
[7] = tested on: COLO 205
[8] = tested on: DLD-1
[9] = tested on: DMS-114
[10] = tested on: DMS-273
[11] = tested on: EKVX
[12] = tested on: HCC 2998
[13] = tested on: HCT-116
[14] = tested on: HCT-15
[15] = tested on: HL-60
[16] = tested on: HOP-18
[17] = tested on: HOP-62
[18] = tested on: HOP-92
[19] = tested on: HT-29
[20] = tested on: IGROV-1
[21] = tested on: K562
[22] = tested on: KM-20L2
[23] = tested on: KM12
[24] = tested on: LOX IMVI
[25] = tested on: LXFL 529
[26] = tested on: M14
[27] = tested on: M19-MEL
[28] = tested on: MOLT-4
[29] = tested on: Malme-3M
[30] = tested on: NCI-H226
[31] = tested on: NCI-H23
[32] = tested on: NCI-H460
[33] = tested on: NCI-H522
[34] = tested on: OVCAR-3
[35] = tested on: OVCAR-4
[36] = tested on: OVCAR-5
[37] = tested on: OVCAR-8
[38] = tested on: RPMI-8226
[39] = tested on: RXF 393
[40] = tested on: RXF 631
[41] = tested on: SF-268
[42] = tested on: SF-539
[43] = tested on: SK-MEL-28
[44] = tested on: SK-MEL-2
[45] = tested on: SK-MEL-5
[46] = tested on: SK-OV-3
[47] = tested on: SN12C
[48] = tested on: SNB-19
[49] = tested on: SNB-75
[50] = tested on: SNB-78
[51] = tested on: SW-620
[52] = tested on: TK-10
[53] = tested on: U-251
[54] = tested on: UACC-257
[55] = tested on: UACC-62
[56] = tested on: UO-31
[57] = tested on: XF498
[58] = tested on: SF-295
[59] = tested on: SR

For `NC(=O)C(=O)CC(=O)c1ccccc1NC1=CC(=O)C(=O)c2ccccc21`, the GI50 [1] was > 61.1 µM (inactive), the GI50 [2] was > 100 µM (inactive) and the GI50 [3] was > 100 µM (inactive). For the same molecule, the GI50 [4] was > 87.9 µM (inactive), the GI50 [5] was > 100 µM (inactive) and the GI50 [6] was 33.9 µM (inactive). For the same molecule, the GI50 [7] was > 100 µM (inactive), the GI50 [8] was 42.3 µM (inactive) and the GI50 [9] was 16.7 µM (inactive). For the same molecule, the GI50 [10] was 53.1 µM (inactive), the GI50 [11] was > 100 µM (inactive) and the GI50 [12] was > 100 µM (inactive). For the same molecule, the GI50 [13] was 53.1 µM (inactive), the GI50 [14] was > 53.5 µM and the GI50 [15] was 22.6 µM (inactive). For the same molecule, the GI50 [16] was > 100 µM (inactive), the GI50 [17] was > 100 µM (inactive) and the GI50 [18] was 23.9 µM (inactive). For the same molecule, the GI50 [19] was > 100 µM (inactive), the GI50 [20] was > 92.3 µM (inactive) and the GI50 [21] was 47 µM (inactive). For the same molecule, the GI50 [22] was > 100 µM (inactive), the GI50 [23] was 54.3 µM (inactive) and the GI50 [24] was 14 µM (inactive). For the same molecule, the GI50 [25] was 50.6 µM (inactive), the GI50 [26] was 46.6 µM (inactive) and the GI50 [27] was 7.74 µM (inactive). For the same molecule, the GI50 [28] was > 55 µM (inactive), the GI50 [29] was 31.7 µM (inactive) and the GI50 [30] was > 73.3 µM (inactive). For the same molecule, the GI50 [31] was 31.2 µM (inactive), the GI50 [32] was 98.6 µM (inactive) and the GI50 [33] was 30.2 µM (inactive). For the same molecule, the GI50 [34] was 26.7 µM (inactive), the GI50 [35] was 19.2 µM (inactive) and the GI50 [36] was > 100 µM (inactive). For the same molecule, the GI50 [37] was 48.2 µM (inactive), the GI50 [38] was > 40.6 µM (inactive) and the GI50 [39] was > 83.4 µM (inactive). For the same molecule, the GI50 [40] was > 100 µM (inactive), the GI50 [41] was > 40.8 µM (inactive) and the GI50 [42] was > 100 µM (inactive). For the same molecule, the GI50 [43] was > 51.1 µM (inactive), the GI50 [44] was 65.8 µM (inactive) and the GI50 [45] was 29.3 µM (inactive). The GI50 [46] was > 100 µM (inactive), the GI50 [47] was 51.6 µM (inactive) and the GI50 [48] was > 58.2 µM (inactive). For the same molecule, the GI50 [49] was > 88.3 µM (inactive), the GI50 [50] was 58.6 µM (inactive) and the GI50 [51] was 43.8 µM (inactive). The GI50 [52] was > 100 µM (inactive), the GI50 [53] was > 70 µM (inactive) and the GI50 [54] was 34.7 µM (inactive). The GI50 [55] was 40.6 µM (inactive), the GI50 [56] was > 68.5 µM (inactive) and the GI50 [57] was > 100 µM (inactive).
`C/C(=N\O)c1sc(-n2nc(-c3ccccc3)cc2-c2ccccc2)nc1C` was tested, and the GI50 [1] was 11.2 µM (inactive), the GI50 [2] was 25.4 µM (inactive) and the GI50 [3] was 14.2 µM (inactive). For the same molecule, the GI50 [4] was 11.9 µM (inactive), the GI50 [5] was 13.1 µM (inactive) and the GI50 [6] was 12.3 µM (inactive). For the same molecule, the GI50 [7] was > 10 µM (inactive), the GI50 [8] was 11.5 µM (inactive) and the GI50 [9] was 12.4 µM (inactive). For the same molecule, the GI50 [10] was 22.5 µM (inactive), the GI50 [11] was 6.35 µM (inactive) and the GI50 [12] was 13.6 µM (inactive). The GI50 [13] was 12.6 µM (inactive), the GI50 [14] was 13.9 µM and the GI50 [15] was 14 µM (inactive). For the same molecule, the GI50 [16] was > 10 µM (inactive), the GI50 [17] was 12 µM (inactive) and the GI50 [18] was > 10 µM (inactive). For the same molecule, the GI50 [19] was 13 µM (inactive), the GI50 [20] was 12.2 µM (inactive) and the GI50 [21] was 12.6 µM (inactive). The GI50 [22] was 11.5 µM (inactive), the GI50 [23] was 11.7 µM (inactive) and the GI50 [24] was 12.4 µM (inactive). The GI50 [25] was 11.7 µM (inactive), the GI50 [26] was 13.2 µM (inactive) and the GI50 [27] was 13.3 µM (inactive). The GI50 [28] was 11.1 µM (inactive), the GI50 [29] was 16.9 µM (inactive) and the GI50 [30] was 12.3 µM (inactive). The GI50 [31] was 8.15 µM (inactive), the GI50 [32] was 15.6 µM (inactive) and the GI50 [33] was 12.1 µM (inactive). For the same molecule, the GI50 [34] was 16.3 µM (inactive), the GI50 [35] was > 10 µM (inactive) and the GI50 [36] was > 10 µM (inactive). The GI50 [37] was 12 µM (inactive), the GI50 [38] was 12.2 µM (inactive) and the GI50 [39] was > 10 µM (inactive). The GI50 [40] was 14.8 µM (inactive), the GI50 [41] was 12.1 µM (inactive) and the GI50 [58] was 14 µM (inactive). The GI50 [42] was 12.2 µM (inactive), the GI50 [43] was 12.9 µM (inactive) and the GI50 [44] was 28.3 µM (inactive). The GI50 [45] was 12 µM (inactive), the GI50 [46] was > 10 µM (inactive) and the GI50 [47] was 6.79 µM (inactive). For the same molecule, the GI50 [48] was 12.2 µM (inactive), the GI50 [49] was 14.6 µM (inactive) and the GI50 [50] was 29.8 µM (inactive). The GI50 [59] was 15.3 µM (inactive), the GI50 [51] was 13.1 µM (inactive) and the GI50 [52] was > 10 µM (inactive). The GI50 [53] was 11.7 µM (inactive), the GI50 [54] was 13.6 µM (inactive) and the GI50 [55] was 11.6 µM (inactive). The GI50 [56] was 10.6 µM (inactive) and the GI50 [57] was > 10 µM (inactive).
